Laboratory results taken from patent publication US20100105031A1, “METHOD FOR PREDICTION OF THE EFFICACY OF VASCULARIZATION INHIBITOR” (Esai R & D Management Co., Ltd., priority 2005, published 2010).

What was measured:
AsPC-1 [1] = assay: Example 3 antitumor effect, relative tumor volume, subcutaneously transplanted model (AsPC-1); assay type: in vivo, nude mouse; conditions: FIG. 2
Experimental: (§1) Human cancer cell lines AsPC-1 and H526 (both strains were purchased from ATCC) were cultured with RPMI1640 (containing 10% FBS) in a 5% CO2 incubator until they reached about 80% confluence. After culturing, cells from each strain were recovered with trypsin-EDTA by conventional procedures. The cells were suspended in phosphate buffer to prepare a cell suspension of 5×10^7 cells/ml. Subsequently, 0.1 ml of the cell suspension was subcutaneously transplanted on the lateral side of each nude mouse. After transplantation, when the tumor volume reached about 50-200 mm^3, administration of 5-(5-fluoro-2-oxo-1,2-dihydroindole-3-ylidenemethyl)-2,4-dimethyl-1H-pyrrole-3-carboxylic acid (2-diethylaminoethyl)amide (100 mg/kg, once a day, one week, oral administration) was started. The 5-(5-fluoro-2-oxo-1,2-dihydroindole-3-ylidenemethyl)-2,4-dimethyl-1H-pyrrole-3-carboxylic acid (2-diethylaminoethyl)amide was prepared based on the disclosure in WO 01/060814. The major axis and minor axis of tumor were measured with a Degimatic Caliper (Mitsutoyo). Then, tumor volume and relative tumor volume were calculated using the following formulas:
(§2) Tumor volume(TV)=tumor major axis(mm)×tumor minor axis^2(mm^2)/2
(§3) Relative tumor volume(RTV)=tumor volume on the measurement day/tumor volume on the starting day of administration

H526 [2] = assay: Example 3 antitumor effect, relative tumor volume, subcutaneously transplanted model (H526); assay type: in vivo, nude mouse; conditions: FIG. 2
Experimental: as §1, §2, §3

SEKI = assay: Antitumor effect in human cancer cell line subcutaneously transplanted model (SEKI); assay type: in vivo, nude mouse
From the text: (§4) Human cancer cell lines A375 (purchased from Dainippon Pharma Co., Ltd.), SEKI, HMV-1 (these two lines were purchased from JCRB cell bank, National Institute of Biomedical Innovation), FEM (granted from Dr. Fodstad, The Norwegian Radiumhospital Research Foundation), LOX (purchased from AntiCancer), AZ-521 (purchased from Japan Health Science Foundation), MDA-MB-468, DLD-1, HCT116, SW620, PC-3, DU145, AsPC-1, H526, MDA-MB-231, SK-Mel-2, Lovo and A431 (these 12 lines were purchased from ATCC) were cultured with RPMI1640 (containing 10% FBS) in a 5% CO2 incubator until they reached about 80% confluence. After culturing, cells from each line w ere recovered with trypsin-EDTA by conventional procedures. The cells were suspended in phosphate buffer solution to prepare a cell suspension of 1×10^8 cells/ml or 5×10^7 cells/ml. Subsequently, 0.1 ml of the cell suspension was subcutaneously transplanted on the lateral side of each nude mouse. After transplantation, when the tumor volume reached about 100-200 mm^3, administration of 4-(3-chloro-4-(cyclopropylaminocarbonyl)-aminophenoxy)-7-methoxy-6-quinolinecarboxamide was started (100 mg/kg; twice a day; one week; oral administration). […] The major axis and minor axis of tumor were measured with a Degimatic Caliper (Mitsutoyo). Then, tumor volume and ΔT/C were calculated using the following formulas: […]

LOX = assay: Antitumor effect in human cancer cell line subcutaneously transplanted model (LOX); assay type: in vivo, nude mouse
From the text: as §4

MDA-MB-231 = assay: Antitumor effect in human cancer cell line subcutaneously transplanted model (MDA-MB-231); assay type: in vivo, nude mouse
From the text: as §4

MDA-MB-468 = assay: Antitumor effect in human cancer cell line subcutaneously transplanted model (MDA-MB-468); assay type: in vivo, nude mouse
From the text: as §4

H526 [3] = assay: Antitumor effect in human cancer cell line subcutaneously transplanted model (H526); assay type: in vivo, nude mouse
From the text: as §4

AZ-521 = assay: Antitumor effect in human cancer cell line subcutaneously transplanted model (AZ-521); assay type: in vivo, nude mouse
From the text: as §4

SK-Mel-2 = assay: Antitumor effect in human cancer cell line subcutaneously transplanted model (SK-Mel-2); assay type: in vivo, nude mouse
From the text: as §4

DLD-1 = assay: Antitumor effect in human cancer cell line subcutaneously transplanted model (DLD-1); assay type: in vivo, nude mouse
From the text: as §4

PC-3 = assay: Antitumor effect in human cancer cell line subcutaneously transplanted model (PC-3); assay type: in vivo, nude mouse
From the text: as §4

DU145 = assay: Antitumor effect in human cancer cell line subcutaneously transplanted model (DU145); assay type: in vivo, nude mouse
From the text: as §4

A375 = assay: Antitumor effect in human cancer cell line subcutaneously transplanted model (A375); assay type: in vivo, nude mouse
From the text: as §4

Lovo = assay: Antitumor effect in human cancer cell line subcutaneously transplanted model (Lovo); assay type: in vivo, nude mouse
From the text: as §4

A431 = assay: Antitumor effect in human cancer cell line subcutaneously transplanted model (A431); assay type: in vivo, nude mouse
From the text: as §4

HMV-1 = assay: Antitumor effect in human cancer cell line subcutaneously transplanted model (HMV-1); assay type: in vivo, nude mouse
From the text: as §4

SW620 = assay: Antitumor effect in human cancer cell line subcutaneously transplanted model (SW620); assay type: in vivo, nude mouse
From the text: as §4

AsPC-1 [4] = assay: Antitumor effect in human cancer cell line subcutaneously transplanted model (AsPC-1); assay type: in vivo, nude mouse
From the text: as §4

HCT116 = assay: Antitumor effect in human cancer cell line subcutaneously transplanted model (HCT116); assay type: in vivo, nude mouse
From the text: as §4

FEM = assay: Antitumor effect in human cancer cell line subcutaneously transplanted model (FEM); assay type: in vivo, nude mouse
From the text: as §4

colorectal cancer = conditions: clinical trials; cited from earlier work
[5] = Compound 2 administration group, 100 mg/kg once a day, one week, oral
[6] = Melanoma, 100 mg/kg twice a day, one week, oral, day 8 vs day 1
[7] = class by intensity of antitumor effect (ΔT/C)
[8] = Compound 1 administration group

With `CCN(CC)CCNC(=O)c1c(C)[nH]c(/C=C2\C(=O)Nc3ccc(F)cc32)c1C` [Compound 2, 5-(5-fluoro-2-oxo-1,2-dihydroindole-3-ylidenemethyl)-2,4-dimethyl-1H-pyrrole-3-carboxylic acid (2-diethylaminoethyl)amide, reference compound] the tumor proliferation (AsPC-1 [1]; [5]) was “rested” and the tumor proliferation (H526 [2]; [5]) was “delayed”.

With `COc1cc2nccc(Oc3ccc(NC(=O)NC4CC4)c(Cl)c3)c2cc1C(N)=O` [Compound 1, 4-(3-chloro-4-(cyclopropylaminocarbonyl)aminophenoxy)-7-methoxy-6-quinolinecarboxamide] the ΔT/C (SEKI; [6]) was 110%, the Classification (SEKI; [7]) was “Proliferation line (cancer cell lines which showed 10%<ΔT/C were classified as proliferation lines)” and the tumor proliferation (AsPC-1 [1]; [8]) was “rested”. For the same compound, the ΔT/C (LOX; [6]) was 42%, the Classification (LOX; [7]) was “Proliferation line (cancer cell lines which showed 10%<ΔT/C were classified as proliferation lines)” and the ΔT/C (MDA-MB-231; MDA-MB-231, Breast cancer, 100 mg/kg twice a day, one week, oral, day 8 vs day 1) was −33%. The Classification (MDA-MB-231; MDA-MB-231, class by intensity of antitumor effect (ΔT/C)) was “Shrinkage line (Cancer cell lines which showed ΔT/C<−30% were classified as shrinkage lines)”, the ΔT/C (MDA-MB-468; MDA-MB-468, Breast cancer, 100 mg/kg twice a day, one week, oral, day 8 vs day 1) was −53% and the Classification (MDA-MB-468; MDA-MB-468, class by intensity of antitumor effect (ΔT/C)) was “Shrinkage line (Cancer cell lines which showed ΔT/C<−30% were classified as shrinkage lines)”. For the same compound, the tumor proliferation (H526 [2]; [8]) was “delayed”, the ΔT/C (H526 [3]; H526, Small cell lung cancer, 100 mg/kg twice a day, one week, oral, day 8 vs day 1) was 22% and the Classification (H526 [3]; H526, class by intensity of antitumor effect (ΔT/C)) was “Proliferation line (cancer cell lines which showed 10%<ΔT/C were classified as proliferation lines)”. The ΔT/C (AZ-521; AZ-521, Gastric cancer, 100 mg/kg twice a day, one week, oral, day 8 vs day 1) was −57%, the Classification (AZ-521; AZ-521, class by intensity of antitumor effect (ΔT/C)) was “Shrinkage line (Cancer cell lines which showed ΔT/C<−30% were classified as shrinkage lines)” and the ΔT/C (SK-Mel-2; SK-Mel-2, Melanoma, 100 mg/kg twice a day, one week, oral, day 8 vs day 1) was −2.5%. For the same compound, the Classification (SK-Mel-2; SK-Mel-2, class by intensity of antitumor effect (ΔT/C)) was “Rest line (cancer cell lines which showed −30%<ΔT/C<10% were classified as rest lines)”, the ΔT/C (DLD-1; DLD-1, Large bowel cancer, 100 mg/kg twice a day, one week, oral, day 8 vs day 1) was 52% and the Classification (DLD-1; DLD-1, class by intensity of antitumor effect (ΔT/C)) was “Proliferation line (cancer cell lines which showed 10%<ΔT/C were classified as proliferation lines)”. For the same compound, the ΔT/C (PC-3; PC-3, Prostate cancer, 100 mg/kg twice a day, one week, oral, day 8 vs day 1) was 54%, the Classification (PC-3; PC-3, class by intensity of antitumor effect (ΔT/C)) was “Proliferation line (cancer cell lines which showed 10%<ΔT/C were classified as proliferation lines)” and the ΔT/C (DU145; DU145, Prostate cancer, 100 mg/kg twice a day, one week, oral, day 8 vs day 1) was −60%. For the same compound, the Classification (DU145; DU145, class by intensity of antitumor effect (ΔT/C)) was “Shrinkage line (Cancer cell lines which showed ΔT/C<−30% were classified as shrinkage lines)”, the ΔT/C (A375; A375, Melanoma, 100 mg/kg twice a day, one week, oral, day 8 vs day 1) was 26% and the Classification (A375; A375, class by intensity of antitumor effect (ΔT/C)) was “Proliferation line (cancer cell lines which showed 10%<ΔT/C were classified as proliferation lines)”. The ΔT/C (Lovo; Large bowel cancer, 100 mg/kg twice a day, one week, oral, day 8 vs day 1) was −11%, the Classification (Lovo; [7]) was “Rest line (cancer cell lines which showed −30%<ΔT/C<10% were classified as rest lines)” and the ΔT/C (A431; A431, Epidermoid carcinoma, 100 mg/kg twice a day, one week, oral, day 8 vs day 1) was −8%. The Classification (A431; A431, class by intensity of antitumor effect (ΔT/C)) was “Rest line (cancer cell lines which showed −30%<ΔT/C<10% were classified as rest lines)”, the ΔT/C (HMV-1; HMV-1, Melanoma, 100 mg/kg twice a day, one week, oral, day 8 vs day 1) was 19% and the Classification (HMV-1; HMV-1, class by intensity of antitumor effect (ΔT/C)) was “Proliferation line (cancer cell lines which showed 10%<ΔT/C were classified as proliferation lines)”. For the same compound, the ΔT/C (SW620; SW620, Large bowel cancer, 100 mg/kg twice a day, one week, oral, day 8 vs day 1) was 22%, the Classification (SW620; SW620, class by intensity of antitumor effect (ΔT/C)) was “Proliferation line (cancer cell lines which showed 10%<ΔT/C were classified as proliferation lines)” and the ΔT/C (AsPC-1 [4]; AsPC-1, Pancreatic cancer, 100 mg/kg twice a day, one week, oral, day 8 vs day 1) was −8%. For the same compound, the Classification (AsPC-1 [4]; AsPC-1, class by intensity of antitumor effect (ΔT/C)) was “Rest line (cancer cell lines which showed −30%<ΔT/C<10% were classified as rest lines)”, the ΔT/C (HCT116; HCT116, Large bowel cancer, 100 mg/kg twice a day, one week, oral, day 8 vs day 1) was 17% and the Classification (HCT116; HCT116, class by intensity of antitumor effect (ΔT/C)) was “Proliferation line (cancer cell lines which showed 10%<ΔT/C were classified as proliferation lines)”. The ΔT/C (FEM; [6]) was 55% and the Classification (FEM; [7]) was “Proliferation line (cancer cell lines which showed 10%<ΔT/C were classified as proliferation lines)”.

For “bevacizumab: human anti-VEGF monoclonal antibody sold by Genentech as Avastin”, the antitumor effect (colorectal cancer) is given as “shown an antitumor effect”.
